This note sets out measurements from patent US20240158393A1, “PYRIDONE COMPOUNDS AND METHODS OF USE” (Exelixis, Inc., priority 2021, published 2024).

This test addresses T1, Human Mer (Homo sapiens, UniProt Q12866).
T1 construct: Human Mer (residues R557-E882 with H628Q and R794A, 0.7 nM); purchased Eurofins Pharma Discovery Services UK Limited (KinaseProfiler service)
T1 sequence (Q12866 557-882 limits assumed): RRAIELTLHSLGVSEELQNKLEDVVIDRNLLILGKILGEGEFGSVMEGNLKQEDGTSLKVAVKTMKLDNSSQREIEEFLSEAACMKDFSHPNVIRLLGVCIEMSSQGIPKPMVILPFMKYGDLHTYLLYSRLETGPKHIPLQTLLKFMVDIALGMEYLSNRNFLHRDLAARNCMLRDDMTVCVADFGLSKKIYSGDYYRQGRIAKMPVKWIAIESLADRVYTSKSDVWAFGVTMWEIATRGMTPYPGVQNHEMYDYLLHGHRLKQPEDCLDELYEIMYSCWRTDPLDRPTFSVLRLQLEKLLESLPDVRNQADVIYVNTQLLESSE
As to the kind of experiment: Human Mer kinase assay (33P radiometric / HTRF KinEase). The class given is biochemical. The conditions noted are these: protocols of Examples C-1 and/or C-2. The method, boiled down: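 Two formats yield IC50 values. HTRF KinEase used MER residues 528-999 with ATP at Km (40 μM), 1 μM biotin-peptide, 60 min RT, […], 10 concentrations. 33P filter assay used 0.7 nM Mer R557-E882 (H628Q/R794A), 10 μM ATP, 250 μM peptide, 40 min RT, top 1 μM.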
In the case of `COc1cnc2c(Oc3ccc(NC(=O)c4cnc(C)c(C5=CCOCC5)c4O)cc3F)ccnc2c1` [Compound 1-4, 5-(3,6-Dihydro-2H-pyran-4-yl)-N-[3-fluoro-4-[(7-methoxy-1,5-naphthyridin-4-yl)oxy]phenyl]-4-hydroxy-6-methylpyridine-3-carboxamide], the IC50 (as a rule, the concentration at which inhibition is half-maximal) is at most 100 nM.

Compound `COc1cc2nccc(Oc3ccc(NC(=O)c4c(C)nc(C)c(C(=O)NC5CC5)c4O)cc3F)c2nc1OC` [Compound 98, 5-N-Cyclopropyl-3-N-[4-[(6,7-dimethoxy-1,5-naphthyridin-4-yl)oxy]-3-fluorophenyl]-4-hydroxy-2,6-dimethylpyridine-3,5-dicarboxamide] gave an IC50 above 300 nM. Regarding `COc1cc2nccc(Oc3ccc(NC(=O)c4cnc(C)c(C5=CCCC5)c4O)cc3)c2cc1OC` [Compound 16, 5-(Cyclopenten-1-yl)-N-[4-(6,7-dimethoxyquinolin-4-yl)oxyphenyl]-4-hydroxy-6-methylpyridine-3-carboxamide], the IC50 was at most 100 nM. `COc1cnc2c(Oc3ccc(NC(=O)c4c(C)nc(C)c(C(C)C)c4O)cc3F)ccnc2c1` [Compound 32, N-[3-Fluoro-4-[(7-methoxy-1,5-naphthyridin-4-yl)oxy]phenyl]-4-hydroxy-2,6-dimethyl-5-propan-2-ylpyridine-3-carboxamide]: the IC50 is at most 100 nM. Next, `COCCOc1cc2nccc(Oc3cc(F)c(NC(=O)c4c(C)n(C)c(C)c(C#N)c4=O)cc3F)c2nc1OC` [Compound 83, 5-Cyano-N-[2,5-difluoro-4-[[6-methoxy-7-(2-methoxyethoxy)-1,5-naphthyridin-4-yl]oxy]phenyl]-1,2,6-trimethyl-4-oxopyridine-3-carboxamide]: above 300 nM; `COc1cc2nccc(Oc3ccc(NC(=O)c4c(C)n(C)c(C)c(C(=O)O)c4=O)cc3F)c2nc1OC` [Compound 92, 5-[[4-[(6,7-Dimethoxy-1,5-naphthyridin-4-yl)oxy]-3-fluorophenyl]carbamoyl]-1,2,6-trimethyl-4-oxopyridine-3-carboxylic acid]: above 300 nM; `COc1cnc2c(Oc3ccc(NC(=O)c4c(C)n(C)c(C)c(C#N)c4=O)cc3F)ccnc2c1` [Compound 81, 5-Cyano-N-[3-fluoro-4-[(7-methoxy-1,5-naphthyridin-4-yl)oxy]phenyl]-1,2,6-trimethyl-4-oxopyridine-3-carboxamide]: above 300 nM.

In the case of `COCCOc1cc2nccc(Oc3ccc(NC(=O)c4cnc(C)c(/C=C/C5CCCC5)c4O)cc3F)c2nc1OC` [Compound 36, 5-[(E)-2-Cyclopentylethenyl]-N-[3-fluoro-4-[[6-methoxy-7-(2-methoxyethoxy)-1,5-naphthyridin-4-yl]oxy]phenyl]-4-hydroxy-6-methylpyridine-3-carboxamide], the IC50 is at most 100 nM. For the compound `COc1cc2nccc(Oc3cc(F)c(NC(=O)c4c(C)nc(C)c(C(C)C)c4O)cc3F)c2nc1OC` [Compound 10, N-[4-[(6,7-Dimethoxy-1,5-naphthyridin-4-yl)oxy]-2,5-difluorophenyl]-4-hydroxy-2,6-dimethyl-5-propan-2-ylpyridine-3-carboxamide], the IC50 is at most 100 nM. As to `COc1cc2nccc(Oc3ccc(NC(=O)c4c(C)n(C)c(C)c(C(=O)NC5CC5)c4=O)cc3F)c2nc1OC` [Compound 96, 3-N-Cyclopropyl-5-N-[4-[(6,7-dimethoxy-1,5-naphthyridin-4-yl)oxy]-3-fluorophenyl]-1,2,6-trimethyl-4-oxopyridine-3,5-dicarboxamide], the IC50 was above 300 nM. As for `C=C(C)n1c(C)cc(C)c(C(=O)Nc2ccc(Oc3ccnc4cc(OC)c(OC)nc34)c(F)c2)c1=O` [Compound 20, N-[4-[(6,7-Dimethoxy-1,5-naphthyridin-4-yl)oxy]-3-fluorophenyl]-4,6-dimethyl-2-oxo-1-prop-1-en-2-ylpyridine-3-carboxamide], the figure is at most 100 nM; as for `COc1cc2nccc(Oc3ccc(NC(=O)c4c(C)nc(C)c(C(C)C)c4O)cc3F)c2nc1OC` [Compound 31, N-[4-[(6,7-Dimethoxy-1,5-naphthyridin-4-yl)oxy]-3-fluorophenyl]-4-hydroxy-2,6-dimethyl-5-propan-2-ylpyridine-3-carboxamide], at most 100 nM; as for `COCCOc1cc2nccc(Oc3ccc(NC(=O)c4cnc(C)c(/C=C/C5CC5)c4O)cc3F)c2nc1OC` [Compound 37, 5-[(E)-2-Cyclopropylethenyl]-N-[3-fluoro-4-[[6-methoxy-7-(2-methoxyethoxy)-1,5-naphthyridin-4-yl]oxy]phenyl]-4-hydroxy-6-methylpyridine-3-carboxamide], at most 100 nM.

With `COCCOc1cc2nccc(Oc3ccc(NC(=O)c4c(C)nc(C)c(C5=CCCC5)c4O)cc3F)c2nc1OC` [Compound 41, 5-(Cyclopenten-1-yl)-N-[3-fluoro-4-[[6-methoxy-7-(2-methoxyethoxy)-1,5-naphthyridin-4-yl]oxy]phenyl]-4-hydroxy-2,6-dimethylpyridine-3-carboxamide], the IC50 was at most 100 nM. Turning to `COc1cc2nccc(Oc3ccc(NC(=O)c4cnc(C)c(/C=C/C(C)(C)C)c4O)cc3F)c2cc1OC` [Compound 30, N-[4-(6,7-Dimethoxyquinolin-4-yl)oxy-3-fluorophenyl]-5-[(E)-3,3-dimethylbut-1-enyl]-4-hydroxy-6-methylpyridine-3-carboxamide], the IC50 is at most 100 nM.

In the case of `C=C(C)n1c(C)cc(C)c(C(=O)Nc2ccc(Oc3ccnc4cc(OC)cnc34)c(F)c2)c1=O` [Compound 21, N-[3-Fluoro-4-[(7-methoxy-1,5-naphthyridin-4-yl)oxy]phenyl]-4,6-dimethyl-2-oxo-1-prop-1-en-2-ylpyridine-3-carboxamide], the IC50 is at most 100 nM. For `COc1cc2nccc(Oc3ccc(NC(=O)c4c5n(cc(C6=CCCCC6)c4=O)CCOC5)cc3)c2nc1OC` [Compound G1-5, 7-(Cyclohexen-1-yl)-N-[4-[(6,7-dimethoxy-1,5-naphthyridin-4-yl)oxy]phenyl]-8-oxo-3,4-dihydro-1H-pyrido[2,1-c][1,4]oxazine-9-carboxamide], the IC50 was at most 100 nM. With `COc1cc2nccc(Oc3ccc(NC(=O)c4c(C)n(C)c(C)c(C(=O)N(C)C)c4=O)cc3F)c2nc1OC` [Compound 95, 5-N-[4-[(6,7-Dimethoxy-1,5-naphthyridin-4-yl)oxy]-3-fluorophenyl]-3-N,3-N,1,2,6-pentamethyl-4-oxopyridine-3,5-dicarboxamide], the half-maximal inhibitory concentration (IC50) is above 300 nM.

The compound `COc1cnc2c(Oc3ccc(NC(=O)c4c(C)nc(C)c(C(N)=O)c4O)cc3F)ccnc2c1` [Compound 91, 3-N-[3-Fluoro-4-[(7-methoxy-1,5-naphthyridin-4-yl)oxy]phenyl]-4-hydroxy-2,6-dimethylpyridine-3,5-dicarboxamide] had a concentration for half-maximal inhibition (IC50) above 300 nM.

`COc1cc2nccc(Oc3ccc(NC(=O)c4cnc(C)c(C5=CCOCC5)c4O)cc3)c2cc1OC` [Compound 17, 5-(3,6-Dihydro-2H-pyran-4-yl)-N-[4-(6,7-dimethoxyquinolin-4-yl)oxyphenyl]-4-hydroxy-6-methylpyridine-3-carboxamide] had a concentration for half-maximal inhibition (IC50) of at most 100 nM. `COc1ccc2nccc(Oc3ccc(NC(=O)c4cnc(C)c(C5=CCOCC5)c4O)cc3F)c2n1` [Compound 1-5, 5-(3,6-Dihydro-2H-pyran-4-yl)-N-[3-fluoro-4-[(6-methoxy-1,5-naphthyridin-4-yl)oxy]phenyl]-4-hydroxy-6-methylpyridine-3-carboxamide]: the IC50 is at most 100 nM. With `COc1cc2nccc(Oc3ccc(NC(=O)c4c5n(c(C)c(C6=CCCCC6)c4=O)CCOC5)cc3)c2nc1OC` [Compound 100, 7-(Cyclohexen-1-yl)-N-[4-[(6,7-dimethoxy-1,5-naphthyridin-4-yl)oxy]phenyl]-6-methyl-8-oxo-3,4-dihydro-1H-pyrido[2,1-c][1,4]oxazine-9-carboxamide], the IC50 is at most 100 nM. Turning to `COc1cc2nccc(Oc3ccc(NC(=O)c4cn(CCF)c(C)c(C5CCCC5)c4=O)cc3F)c2nc1OC` [Compound 13, 5-Cyclopentyl-N-[4-[(6,7-dimethoxy-1,5-naphthyridin-4-yl)oxy]-3-fluorophenyl]-1-(2-fluoroethyl)-6-methyl-4-oxopyridine-3-carboxamide], the 50% inhibitory concentration (IC50) is at most 100 nM. `COc1cc2nccc(Oc3ccc(NC(=O)c4c(C)n(C)c(C)c(C#N)c4=O)cc3)c2nc1OC` [Compound 82, 5-Cyano-N-[4-[(6,7-dimethoxy-1,5-naphthyridin-4-yl)oxy]phenyl]-1,2,6-trimethyl-4-oxopyridine-3-carboxamide] showed a half-inhibitory concentration (IC50) above 300 nM. As for `COCCOc1cc2nccc(Oc3ccc(NC(=O)c4c(C)n(C)c(C)c(/C=C/C(C)(C)C)c4=O)cc3F)c2nc1OC` [Compound 45, 5-[(E)-3,3-Dimethylbut-1-enyl]-N-[3-fluoro-4-[[6-methoxy-7-(2-methoxyethoxy)-1,5-naphthyridin-4-yl]oxy]phenyl]-1,2,6-trimethyl-4-oxopyridine-3-carboxamide], the IC50 was at most 100 nM. In turn, `COCCOc1cc2nccc(Oc3ccc(NC(=O)c4c(O)c(C5=CCOCC5)c(C)[n+](C)c4C)cc3F)c2nc1OC` [Compound 44, 5-(3,6-Dihydro-2H-pyran-4-yl)-N-[3-fluoro-4-[[6-methoxy-7-(2-methoxyethoxy)-1,5-naphthyridin-4-yl]oxy]phenyl]-1,2,6-trimethyl-4-oxopyridine-3-carboxamide] returned an IC50 of at most 100 nM.
